Molecules are shown by their SMILES. “Also recorded” adds a separate entry of the source. Read-outs that look alike come from different tables or passages of the source.

In general, inhibition refers to the change of the read-out against control, counted positive when it falls. Broadly, the IC50 is the midpoint of a concentration-inhibition curve.

Experiment [1] deals with breast (MCF-7) and colon (LS-174T) cancer cell lines. Description: Growth inhibition of breast and colon cancer cells (Table 1). It is filed as cell-based, human. The following applies: for inhibition at 50 µM: Homo sapiens. The gist of the method: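 MCF-7 and LS-174T cells seeded day −1, treated on day 0 and day 2; duplicate Coulter counts on days 3 and 4 after gentle trypsinization. Percent growth inhibition versus untreated controls from dose-response curves, averaged over ≥3 experiments.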

Experiment [2] deals with breast and colon cancer lines (MCF-7, T-47D, ZR-75-1, MCF-7ras, MDA-MB-231, BT-20, HBL-100, LS-174T, WiDr, HT-29). Kind of experiment: Growth inhibition of breast and colon cancer lines (FIG. 1). It is filed as cell-based, human.
The subject of experiment [3] is RI and RII cAMP receptor proteins, LS-174T. Description: Photoaffinity labelling of cAMP receptor proteins (Table 10, FIG. 6). It is filed as cell-based, human. The conditions noted are these: 3 days, 8-Cl and N^6-benzyl 10 μM, dibutyryl 1 mM; for relative level of RI / relative level of RII: control RI = 1.0 O.D. Here is the method:
(§1) Photoactivated incorporation of 8-N3 [^32 P] was performed as described below.
(§2) M is marker proteins of known molecular weight.
(§3) Each lane contained 50 micrograms protein for SDS-PAGE.
(§4) The incubations were carried out at 23° C. for 60 minutes in 96-well immunoplates. The reaction mixtures were then irradiated for 30 seconds at 254 nm, placing a Mineralite UVS-11 hand lamp directly onto the plate. The samples were mixed with 25 microliters of 3× sample buffer (3% SDS, 15% beta-mercaptoethanol, 30 mM Tris, 30% glycerol, 1% bromophenol blue saturated solution), boiled for 3 minutes, and centrifuged at 700 × g for five minutes. The samples containing 10-30 micrograms of protein were subjected to 0.05% SDS-12% PAGE. The gels were fixed, dried, and exposed to X-ray films overnight. The protein concentrations were determined by the method of Lowry et al., J. Biol. Chem. 193: 265-275, 1951, with bovine serum albumin as standard.
(§5) The levels of the receptor proteins are expressed relative to the RI level in the untreated control cells of MDA-MB-231 and LS-174T which are each set equal to 1.0 O.D.; the scale was expanded to differentiate the lower intensity bands.

Experiment [4] deals with RI and RII cAMP receptor proteins, MDA-MB-231. The experiment is described as above. The conditions noted are these: 3 days, 8-Cl and N^6-benzyl 10 μM, dibutyryl 1 mM; for relative level of RI / relative level of RII: control RI = 1.0 O.D. It is filed as cell-based, human. The protocol:
as §1, §2, §3, §4, §5

Experiment [5] deals with p21 ras protein, MCF-7 cells. Kind of experiment: Western blotting of p21 ras protein (Table 11, FIG. 7). It is filed as cell-based, human. The following applies: for p21 (Relative Level): 3 days, 8-Cl-cAMP 10 μM, 8-Cl-adenosine 5 μM, DBcAMP 500 μM, control = 1.0 O.D.; for p21 level: three days. The protocol:
Western blotting of p21 protein was performed as described below. […] V is cell lysate from Ha-MuSV-transformed NIH3T3 clone 13-3B-4. M, marker proteins of known molecular weight.
Each lane contained 100 micrograms of protein for SDS-PAGE.
Cellular proteins present in cell extracts were separated by 12% SDS-PAGE and transferred to nitrocellulose sheets in transfer buffer (25 mM Tris, 192 mM glycine, 20% methanol, pH 7.4). Nitrocellulose sheets were washed and first incubated with 3% bovine serum albumin in NTE-NP40 (50 mM Tris-HCl, pH 7.5, 150 mM NaCl, 2 mM EDTA, 0.1% Nonidet P-40) for three hours at 37° C. and then sequentially incubated with medium containing p21 monoclonal antiserum Y13-259 directed against the Ha-MuSV-encoded p21 for sixteen hours at 4° C., rabbit anti-rat IgG for 2.5 hours in an ice water bath, and 5×10^5 cpm/ml ^125 I-protein A for one hour in an ice water bath. The nitrocellulose sheets were air dried and exposed to Kodak XAR film for 12-36 hours at -20° C. Comparison of the resulting autoradiograms with others in which normal rat serum was substituted for p21 monoclonal antibody permitted identification of p21. To provide a reference p21, cell lysates were prepared from NIH 3T3 clone 13-3B-4 that had been transfected with HaMuSV DNA.
The levels of p21 protein are expressed relative to the p21 level in the untreated control cells which is set equal to 1.0 O.D.

Experiment [6] has as its system DMBA-1 mammary carcinoma. Description: Growth of transplantable mammary carcinoma, pellet (Table 5). It is filed as in vivo, rat. The conditions noted are these: for Change in mean tumor volume (cm^3) / Change in mean tumor volume (%): pellet with 10 mg analogue, day 7; for Change in mean tumor volume (%): none = 100. The protocol:
(§6) Based on the findings with the […] leukemia model, the efficacy of the 8-Cl-cAMP-Na+infusions were evaluated in advanced-stage human tumor xenograft models. Tumor fragments of approximately 14 mg were implanted subcutaneously in athymic CD-1 female mice and seven day intraperitoneal infusions of the cyclic nucleotide were initiated three weeks later when mean tumor weights had reached 300-400 mg. Tumor measurements were recorded on the initial day of treatment (staging day) and one day after treatment was completed (staging day +7), and were used to calculate changes in tumor weights.
DMBA-1, a variant of primary hormonedependent DMBA tumor,
hormoneindependent and transplantable.
(§7) 8Cl-cAMP and DBcAMP were given as a 20mg pellet consisting of 10 mg of […]

In experiment [7] the test system is NMU-2 mammary carcinoma. Description: Growth of metastatic mammary carcinoma, pellet (Table 5). It is filed as in vivo, rat. The following applies: for Change in mean tumor volume (cm^3) / Change in mean tumor volume (%): pellet with 10 mg analogue, day 7; for Change in mean tumor volume (%): none = 100. The protocol: as §6
NMU2, a variant of primary hormoneresponsive NMU tumor,
hormoneindependent, transplantable, and metastatic.
as §7

Experiment [8] has as its system HL-60. Description: Growth inhibition of leukemic cells (Table 12). It is filed as cell-based. The following applies: Homo sapiens.
The subject of experiment [9] is myc-K562. Kind of experiment: Growth inhibition of leukemic cells (Table 12). It is filed as cell-based. The conditions noted are these: Homo sapiens.
Experiment [10] has as its system RI cAMP receptor protein, Molt-4 leukemic cells. Kind of experiment: Photoaffinity labelling of RI cAMP receptor protein (FIG. 9A). It is filed as cell-based, human. The conditions noted are these: three days; 8-Cl-cAMP 5 μM, DBcAMP 1 mM, 8-Cl-adenosine 5 μM.
The subject of experiment [11] is RI and RII cAMP receptor proteins, breast (MDA-MB-231) and colon (LS-174T) cancer cells. Kind of experiment: cAMP receptor protein levels, breast and colon cancer cells (FIG. 6). It is filed as cell-based, human. The following applies: for RI and RII receptor levels: three days, FIG. 6. The protocol: as §1, §2
The incubations were carried out at 23° C. for 60 minutes in 96-well immunoplates. […] The gels were fixed, dried, and exposed to X-ray films overnight.

[12] abbreviates: 72 h, 50 μM, day 3, average (range), read-out: % Growth Inhibition, Day 3.
The mark [13] stands for this setting: 96 h, 50 μM, day 4, average (range), read-out: % Growth Inhibition, Day 4.

On to `Nc1ncnc2c1nc(Cl)n2[C@@H]1O[C@@H]2COP(=O)(O)O[C@H]2[C@H]1O` [8-Cl-cAMP, 8-chloro-adenosine 3': 5'-monophosphate], for which the inhibition at 50 µM is 67% in [1] (setting [12]); 75% in experiment [1] (setting [13]); 40 to 75% in [1] (50 micromolar, read-out: growth inhibition). Moreover, the “growth inhibition of cancer lines” value in experiment [2] (densitometry text) is recorded as 45-70%. In addition, the RII/RI in experiment [3] was determined as 1.25; in experiment [4], 0.60. The “relative level of RI” value in experiment [3] is on record as 0.20 ± 0.02; in [4], 0.25 ± 0.03. The “relative level of RII” value in experiment [3] is recorded as 0.25 ± 0.02; in experiment [4] it was 0.15 ± 0.01. Moreover, the “p21 (Relative Level)” value in [5] worked out at 0.1 ± 0.01. In experiment [5], the “p21 level” value is recorded as “markedly decreased level of p21”. Moreover, the entries for the “Change in mean tumor volume (cm^3)” value in experiment [6] and in [7] were 1.60 cm^3 and 1.10 cm^3, respectively. In addition, the figures for the “Change in mean tumor volume (%)” value in [6] and in [7] were 61% and 51%, respectively. Moreover, the “inhibition of tumor growth” value is reported as 40-50% in [6] (pellet, seven days) and 40-50% in experiment [7] (pellet, seven days). The half-maximal inhibitory concentration (IC50) in experiment [8] is 10 µM; in experiment [9] it was 20 µM. The “RI receptor protein level” value in experiment [10] was “markedly decreased”. For the same molecule, the “decrease in the RI level” value in [11] (densitometric tracings) is recorded as 70-80%. Further, the “increase in the ratio of RII to RI” value in [11] (densitometric tracings) is recorded as “two- to three-fold increase”. For the same molecule, the “RI and RII receptor levels” value in experiment [11] is on record as “the cAMP receptor protein with a molecular weight of 52,000 increased appreciably with concomitant decrease of the 48,000 RI receptor protein”.
Consider `CCCC(=O)Nc1ncnc2c1ncn2[C@@H]1O[C@@H]2COP(=O)(O)O[C@H]2[C@H]1OC(=O)CCC` [DBcAMP, N^6, O^2' -dibutyryl-cAMP, reference compound], for which the “growth inhibition” value in experiment [1] (50 micromolar) is recorded as “no growth inhibition”. In addition, the inhibition at 50 µM in [1] (setting [12]) and in [1] (setting [13]) was 0% each time. In [2] (Homo sapiens, 1 mM), this molecule gave an inhibition at 1000 µM of 15%. The RII/RI is reported as 0.19 in experiment [3] and 0.07 in experiment [4]. Also, the entries for the “relative level of RI” value in [3] and in experiment [4] were 0.80 ± 0.10 and 1.0 ± 0.1, respectively. Besides, the “relative level of RII” value in experiment [3] was 0.15 ± 0.02; in [4], 0.07 ± 0.01. Further, the “p21 (Relative Level)” value in [5] turned out to be 0.8 ± 0.1. Also, the “p21 level” value in [5] is listed as “slight reduction in p21 level”. Moreover, the “tumor response” value in experiment [6] (Table 5) and in experiment [7] (Table 5) was “completely resistant” throughout. Also, the “Change in mean tumor volume (cm^3)” value in experiment [6] stood at 2.60 cm^3; in [7] it was 2.15 cm^3. Moreover, the figures for the “Change in mean tumor volume (%)” value in experiment [6] and in experiment [7] were 9% and 100%, respectively. The IC50 turned out to be 500 µM in [8] and 1000 µM in [9]. Also, the “RI receptor protein level” value in [10] is given as “without appreciable change”. In addition, in [11], the “RI and RII receptor levels” value is “the RI and RII receptor levels remained unchanged; also recorded: did not appreciably affect the RI or RII receptor levels”.
